Results: ChEMBL document CHEMBL2073877, “Functional characterization of the basolateral rat liver organic anion transporting polypeptide” (Hepatology, 1994)
Each block holds one molecule with its values, some of them ahead of it.

Key:
[1] = molecular target: T1, Solute carrier organic anion transporter family member 1A1 (Rattus norvegicus, UniProt P46720); assay: TP_TRANSPORTER: inhibition of BSP uptake (BSP: 2 uM, DIDS: 100 uM) in Xenopus laevis oocytes; type: functional, cell-based, Oocyte; settings: probe BSP
T1 sequence (P46720 whole entry): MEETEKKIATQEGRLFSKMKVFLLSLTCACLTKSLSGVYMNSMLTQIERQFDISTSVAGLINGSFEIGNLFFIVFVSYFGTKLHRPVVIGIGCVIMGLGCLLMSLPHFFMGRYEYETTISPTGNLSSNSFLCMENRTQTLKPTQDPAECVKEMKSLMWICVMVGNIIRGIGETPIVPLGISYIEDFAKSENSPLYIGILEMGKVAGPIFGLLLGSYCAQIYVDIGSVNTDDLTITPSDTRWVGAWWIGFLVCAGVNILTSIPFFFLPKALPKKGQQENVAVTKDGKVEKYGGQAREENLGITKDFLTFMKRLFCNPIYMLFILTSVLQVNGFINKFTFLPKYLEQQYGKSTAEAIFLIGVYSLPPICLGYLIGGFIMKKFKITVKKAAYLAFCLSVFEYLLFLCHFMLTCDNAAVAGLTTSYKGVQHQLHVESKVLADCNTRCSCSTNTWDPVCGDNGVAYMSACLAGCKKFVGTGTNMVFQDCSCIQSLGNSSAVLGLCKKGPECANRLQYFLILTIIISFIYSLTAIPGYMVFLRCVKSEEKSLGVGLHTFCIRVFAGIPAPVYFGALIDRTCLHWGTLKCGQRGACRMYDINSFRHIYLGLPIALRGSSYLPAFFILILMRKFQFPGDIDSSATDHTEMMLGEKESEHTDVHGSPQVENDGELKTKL

[2] = molecular target: T1, Solute carrier organic anion transporter family member 1A1; assay: TP_TRANSPORTER: inhibition of BSP uptake (BSP: 1 uM, Bilirubin: 10 uM) in Xenopus laevis oocytes; type: functional, cell-based, Oocyte; settings: probe BSP
[3] = molecular target: T1, Solute carrier organic anion transporter family member 1A1; assay: TP_TRANSPORTER: inhibition of BSP uptake (BSP: 2 uM, CDCA: 100 uM) in Xenopus laevis oocytes; type: functional, cell-based; settings: oocyte
[4] = molecular target: T1, Solute carrier organic anion transporter family member 1A1; assay: TP_TRANSPORTER: inhibition of Taurocholate uptake (Taurochorate: 20 uM, CDCA: 200 uM) in Xenopus laevis oocytes; type: functional, cell-based; settings: oocyte
[5] = molecular target: T1, Solute carrier organic anion transporter family member 1A1; assay: TP_TRANSPORTER: inhibition of BSP uptake (BSP: 2 uM, DCA: 100 uM) in Xenopus laevis oocytes; type: functional, cell-based; settings: oocyte
[6] = molecular target: T1, Solute carrier organic anion transporter family member 1A1; assay: TP_TRANSPORTER: inhibition of Taurocholate uptake (Taurochorate: 20 uM, DCA: 200 uM) in Xenopus laevis oocytes; type: functional, cell-based; settings: oocyte
[7] = molecular target: T1, Solute carrier organic anion transporter family member 1A1; assay: TP_TRANSPORTER: inhibition of BSP uptake (BSP: 2 uM, GCDCA: 100 uM) in Xenopus laevis oocytes; type: functional, cell-based; settings: oocyte
[8] = molecular target: T1, Solute carrier organic anion transporter family member 1A1; assay: TP_TRANSPORTER: inhibition of Taurocholate uptake (Taurochorate: 20 uM, GCDCA: 200 uM) in Xenopus laevis oocytes; type: functional, cell-based; settings: oocyte
[9] = molecular target: T1, Solute carrier organic anion transporter family member 1A1; assay: TP_TRANSPORTER: inhibition of BSP uptake (BSP: 2 uM, GC: 100 uM) in Xenopus laevis oocytes; type: functional, cell-based; settings: oocyte
[10] = molecular target: T1, Solute carrier organic anion transporter family member 1A1; assay: TP_TRANSPORTER: inhibition of Taurocholate uptake (Taurochorate: 20 uM, GC: 200 uM) in Xenopus laevis oocytes; type: functional, cell-based; settings: oocyte
[11] = molecular target: T1, Solute carrier organic anion transporter family member 1A1; assay: TP_TRANSPORTER: inhibition of Taurocholate uptake (Taurochorate: 20 uM, GDCA: 200 uM) in Xenopus laevis oocytes; type: functional, cell-based; settings: oocyte
[12] = molecular target: T1, Solute carrier organic anion transporter family member 1A1; assay: TP_TRANSPORTER: inhibition of BSP uptake (BSP: 2 uM, GDCA: 100 uM) in Xenopus laevis oocytes; type: functional, cell-based; settings: oocyte
[13] = molecular target: T1, Solute carrier organic anion transporter family member 1A1; assay: TP_TRANSPORTER: inhibition of BSP uptake (BSP: 2 uM, ICG: 100 uM) in Xenopus laevis oocytes; type: functional, cell-based, Oocyte; settings: probe BSP, read-out: Activity
[14] = molecular target: T1, Solute carrier organic anion transporter family member 1A1; assay: TP_TRANSPORTER: inhibition of BSP uptake (BSP: 2 uM, Probenecid: 1000 uM) in Xenopus laevis oocytes; type: functional, cell-based, Oocyte; settings: probe BSP
[15] = molecular target: T1, Solute carrier organic anion transporter family member 1A1; assay: TP_TRANSPORTER: inhibition of Taurocholate uptake (Taurochorate: 20 uM, TCDC: 200 uM) in Xenopus laevis oocytes; type: functional, cell-based; settings: oocyte
[16] = molecular target: T1, Solute carrier organic anion transporter family member 1A1; assay: TP_TRANSPORTER: inhibition of BSP uptake (BSP: 2 uM, TCDC: 100 uM) in Xenopus laevis oocytes; type: functional, cell-based; settings: oocyte
[17] = molecular target: T1, Solute carrier organic anion transporter family member 1A1; assay: TP_TRANSPORTER: inhibition of Taurocholate uptake (Taurochorate: 20 uM, TDCA: 200 uM) in Xenopus laevis oocytes; type: functional, cell-based; settings: oocyte
[18] = molecular target: T1, Solute carrier organic anion transporter family member 1A1; assay: TP_TRANSPORTER: inhibition of BSP uptake (BSP: 2 uM, TDCA: 100 uM) in Xenopus laevis oocytes; type: functional, cell-based; settings: oocyte
[19] = molecular target: T1, Solute carrier organic anion transporter family member 1A1; assay: TP_TRANSPORTER: inhibition of BSP uptake (BSP: 2 uM, UDCA: 100 uM) in Xenopus laevis oocytes; type: functional, cell-based; settings: oocyte
[20] = molecular target: T1, Solute carrier organic anion transporter family member 1A1; assay: TP_TRANSPORTER: inhibition of Taurocholate uptake (Taurochorate: 20 uM, UDCA: 200 uM) in Xenopus laevis oocytes; type: functional, cell-based; settings: oocyte

inhibition at 100 µM [1]: 52%
SMILES: O=S(=O)(O)c1cc(N=C=S)ccc1/C=C/c1ccc(NC=S)cc1S(=O)(=O)O

inhibition at 10 µM [2]: 43%
SMILES: C=CC1=C(C)/C(=C/c2[nH]c(Cc3[nH]c(/C=C4\NC(=O)C(C)=C4C=C)c(C)c3CCC(=O)O)c(CCC(=O)O)c2C)NC1=O [BILIRUBIN]

SMILES: C[C@H](CCC(=O)O)[C@H]1CC[C@H]2[C@@H]3[C@H](O)C[C@@H]4C[C@H](O)CC[C@]4(C)[C@H]3CC[C@]12C [CHENODIOL]
Activity [3]: inhibitor [(at a rough estimate) 15 % of control]
Activity [4]: inhibitor [(at a rough estimate) 5 % of control]

SMILES: C[C@H](CCC(=O)O)[C@H]1CC[C@H]2[C@@H]3CC[C@@H]4C[C@H](O)CC[C@]4(C)[C@H]3C[C@H](O)[C@]12C [DEOXYCHOLIC ACID]
Activity [5]: inhibitor [(at a rough estimate) 15 % of control]
Activity [6]: inhibitor [(at a rough estimate) 5 % of control]

SMILES: C[C@H](CCC(=O)NCC(=O)O)[C@H]1CC[C@H]2[C@@H]3[C@H](O)C[C@@H]4C[C@H](O)CC[C@]4(C)[C@H]3CC[C@]12C [GLYCOCHENODEOXYCHOLATE]
Activity [7]: inhibitor [(at a rough estimate) 10 % of control]
Activity [8]: inhibitor [(at a rough estimate) 5 % of control]

SMILES: C[C@H](CCC(=O)NCC(=O)O)[C@H]1CC[C@H]2[C@@H]3[C@H](O)C[C@@H]4C[C@H](O)CC[C@]4(C)[C@H]3C[C@H](O)[C@]12C [GLYCOCHOLIC ACID]
Activity [9]: inhibitor [(at a rough estimate) 45 % of control]
Activity [10]: inhibitor [(at a rough estimate) 40 % of control]

SMILES: C[C@H](CCC(=O)NCC(=O)O)[C@H]1CC[C@H]2[C@@H]3CC[C@@H]4C[C@H](O)CC[C@]4(C)[C@H]3C[C@H](O)[C@]12C [GLYCODEOXYCHOLATE]
Activity [11]: inhibitor [(at a rough estimate) 10 % of control]
Activity [12]: inhibitor [(at a rough estimate) 15 % of control]

inhibition at 100 µM [13]: 81%
SMILES: CC1(C)C(/C=C/C=C/C=C/C=C2\N(CCCCS(=O)(=O)O)c3ccc4ccccc4c3C2(C)C)=[N+](CCCCS(=O)(=O)[O-])c2ccc3ccccc3c21 [INDOCYANINE GREEN]

inhibition at 1000 µM [14]: 74%
SMILES: CCCN(CCC)S(=O)(=O)c1ccc(C(=O)O)cc1 [PROBENECID]

SMILES: C[C@H](CCC(=O)NCCS(=O)(=O)O)[C@H]1CC[C@H]2[C@@H]3[C@H](O)C[C@@H]4C[C@H](O)CC[C@]4(C)[C@H]3CC[C@]12C [TAUROCHENODEOXYCHOLATE]
Activity [15]: inhibitor [(at a rough estimate) 5 % of control]
Activity [16]: inhibitor [(at a rough estimate) 5 % of control]

SMILES: C[C@H](CCC(=O)NCCS(=O)(=O)O)[C@H]1CC[C@H]2[C@@H]3CC[C@@H]4C[C@H](O)CC[C@]4(C)[C@H]3C[C@H](O)[C@]12C [TAURODEOXYCHOLIC ACID]
Activity [17]: inhibitor [(at a rough estimate) 5 % of control]
Activity [18]: inhibitor [(at a rough estimate) 10 % of control]

SMILES: C[C@H](CCC(=O)O)[C@H]1CC[C@H]2[C@@H]3[C@@H](O)C[C@@H]4C[C@H](O)CC[C@]4(C)[C@H]3CC[C@]12C [URSODIOL]
Activity [19]: inhibitor [(at a rough estimate) 15 % of control]
Activity [20]: inhibitor [(at a rough estimate) 10 % of control]
